Reference: US20220119354A1, “DIAMINO-SUBSTITUTED PYRIDINES AND PYRIMIDINES AS HERBICIDES” (FMC Corporation, priority 2019, published 2022)

Tests used:
Type in all cases: in vivo
[1] = tested on: barnyardgrass (Echinochloa crus-galli); assay: Test A preemergence, barnyardgrass; conditions: 0 to 100 scale, 0 is no effect, 100 is complete control
In short: (§1)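 Ratings reflect visual comparison with untreated controls roughly 10 d after greenhouse application, 0 meaning no effect and 100 complete control. Treatment was by directed soil spray at planting or by spray onto one- to two-leaf plants in loam/sand pots.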

kochia (Kochia scoparia) [2] = assay: Test A preemergence, kochia; conditions: 0 to 100 scale, 0 is no effect, 100 is complete control
In short: as §1

[3] = tested on: ragweed (common ragweed, Ambrosia elatior); assay: Test A preemergence, ragweed; conditions: 0 to 100 scale, 0 is no effect, 100 is complete control
In short: as §1

[4] = tested on: ryegrass, Italian (Lolium multiflorum); assay: Test A preemergence, Italian ryegrass; conditions: 0 to 100 scale, 0 is no effect, 100 is complete control
In short: as §1

[5] = tested on: foxtail, giant (Setaria faberii); assay: Test A preemergence, giant foxtail; conditions: 0 to 100 scale, 0 is no effect, 100 is complete control
In short: as §1

[6] = tested on: pigweed (Amaranthus retroflexus); assay: Test A preemergence, pigweed; conditions: 0 to 100 scale, 0 is no effect, 100 is complete control
In short: as §1

[7] = tested on: barnyardgrass (Echinochloa crus-galli); assay: Test A postemergence, barnyardgrass; conditions: 0 to 100 scale, 0 no effect, 100 complete control
In short: as §1

kochia (Kochia scoparia) [8] = assay: Test A postemergence, kochia; conditions: 0 to 100 scale, 0 no effect, 100 complete control
In short: as §1

[9] = tested on: ragweed (common ragweed, Ambrosia elatior); assay: Test A postemergence, ragweed; conditions: 0 to 100 scale, 0 no effect, 100 complete control
In short: as §1

[10] = tested on: ryegrass, Italian (Lolium multiflorum); assay: Test A postemergence, Italian ryegrass; conditions: 0 to 100 scale, 0 no effect, 100 complete control
In short: as §1

[11] = tested on: foxtail, giant (Setaria faberii); assay: Test A postemergence, giant foxtail; conditions: 0 to 100 scale, 0 no effect, 100 complete control
In short: as §1

[12] = tested on: pigweed (Amaranthus retroflexus); assay: Test A postemergence, pigweed; conditions: 0 to 100 scale, 0 no effect, 100 complete control
In short: as §1

[13] = tested on: wheat (Triticum aestivum); assay: Test A postemergence, wheat; conditions: 0 to 100 scale, 0 no effect, 100 complete control
In short: as §1

corn (Zea mays) = assay: Test A postemergence, corn; conditions: 0 to 100 scale, 0 no effect, 100 complete control
In short: as §1

[14] = tested on: blackgrass (Alopecurus myosuroides); assay: Test A postemergence, blackgrass; conditions: 0 to 100 scale, 0 no effect, 100 complete control
In short: as §1

[15] = tested on: galium (catchweed bedstraw, Galium aparine); assay: Test A postemergence, galium; conditions: 0 to 100 scale, 0 no effect, 100 complete control
In short: as §1

rice (Oryza sativa) = assay: Test B flooded paddy test, rice; conditions: Flood, 250 g ai/ha, applied to paddy water, 2-leaf stage, visual evaluation after 13 to 15 d
In short: (§2)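 Pots flooded to 3 cm above the soil when treated, with test compound added straight to the water and the flood maintained. Treated plants were at the 2-leaf stage and stayed 13–15 d in greenhouse. Response versus untreated controls scored visually from 0 (no effect) to 100 (complete control).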

[16] = tested on: sedge, umbrella (small-flower umbrella sedge, Cyperus difformis); assay: Test B flooded paddy test, umbrella sedge; conditions: Flood, 250 g ai/ha, applied to paddy water, 2-leaf stage, visual evaluation after 13 to 15 d
In short: as §2

[17] = tested on: ducksalad (Heteranthera limosa); assay: Test B flooded paddy test, ducksalad; conditions: Flood, 250 g ai/ha, applied to paddy water, 2-leaf stage, visual evaluation after 13 to 15 d
In short: as §2

[18] = tested on: barnyardgrass (Echinochloa crus-galli); assay: Test B flooded paddy test, barnyardgrass; conditions: Flood, 250 g ai/ha, applied to paddy water, 2-leaf stage, visual evaluation after 13 to 15 d
In short: as §2

Row | Structure (SMILES) | Barnyardgrass plant response rating ([1]; 125 g ai/ha) | Barnyardgrass plant response rating ([1]; 500 g ai/ha) | Kochia plant response rating (kochia (Kochia scoparia) [2]; 125 g ai/ha) | Kochia plant response rating (kochia (Kochia scoparia) [2]; 500 g ai/ha) | Ragweed plant response rating ([3]; 125 g ai/ha) | Ragweed plant response rating ([3]; 500 g ai/ha) | Ryegrass, Italian plant response rating ([4]; 125 g ai/ha) | Ryegrass, Italian plant response rating ([4]; 500 g ai/ha) | Foxtail, Giant plant response rating ([5]; 125 g ai/ha) | Foxtail, Giant plant response rating ([5]; 500 g ai/ha) | Pigweed plant response rating ([6]; 125 g ai/ha) | Pigweed plant response rating ([6]; 500 g ai/ha) | Plant response rating, Barnyardgrass ([7]; 125 g ai/ha) | Plant response rating, Barnyardgrass ([7]; 500 g ai/ha) | Plant response rating, Kochia (kochia (Kochia scoparia) [8]; 125 g ai/ha) | Plant response rating, Kochia (kochia (Kochia scoparia) [8]; 500 g ai/ha) | Plant response rating, Ragweed ([9]; 125 g ai/ha) | Plant response rating, Ragweed ([9]; 500 g ai/ha) | Plant response rating, Ryegrass, Italian ([10]; 125 g ai/ha) | Plant response rating, Ryegrass, Italian ([10]; 500 g ai/ha) | other results
1 | C[C@H](Nc1nc(N)c(C(F)(F)F)c(C(F)(F)F)n1)c1cc2ccccc2o1 [Compound 66] | 0 | 0 | 0 | 0 | 0 | 0 | 0 | 0 | 0 | 0 | 0 | 0 | 0 | 30 | 20 | 90 | 0 | 20 | 0 | 0 | Plant response rating, Foxtail, Giant ([11]; 125 g ai/ha): 0; Plant response rating, Foxtail, Giant ([11]; 500 g ai/ha): 0; Plant response rating, Pigweed ([12]; 125 g ai/ha): 30; Plant response rating, Pigweed ([12]; 500 g ai/ha): 100; Plant response rating, Wheat ([13]; 125 g ai/ha): 0; Plant response rating, Wheat ([13]; 500 g ai/ha): 0; Plant response rating, Corn (corn (Zea mays); 125 g ai/ha): 0; Plant response rating, Corn (corn (Zea mays); 500 g ai/ha): 20; Plant response rating, Blackgrass ([14]; 125 g ai/ha): 0; Plant response rating, Blackgrass ([14]; 500 g ai/ha): 30; Plant response rating, Galium ([15]; 125 g ai/ha): 30; Plant response rating, Galium ([15]; 500 g ai/ha): 40; Plant response rating, Rice (0 to 100 scale, 0 is no effect, 100 is complete control) (rice (Oryza sativa)): 0; Plant response rating, Sedge, Umbrella (0 to 100 scale, 0 is no effect, 100 is complete control) [16]: 0; Plant response rating, Ducksalad (0 to 100 scale, 0 is no effect, 100 is complete control) [17]: 0; Plant response rating, Barnyardgrass (0 to 100 scale, 0 is no effect, 100 is complete control) [18]: 0
2 | C[C@@H](Nc1nc(N)c(C(F)(F)F)c(C(F)(F)F)n1)C1Cc2ccccc2C1 [Compound 67] | 0 | 0 | 0 | 90 | 0 | 0 | 0 | 0 | 0 | 0 | 30 | 90 | 0 | 0 | 50 | 70 | 0 | 0 | 0 | 0 | Plant response rating, Foxtail, Giant ([11]; 125 g ai/ha): 0; Plant response rating, Foxtail, Giant ([11]; 500 g ai/ha): 0; Plant response rating, Pigweed ([12]; 125 g ai/ha): 20; Plant response rating, Pigweed ([12]; 500 g ai/ha): 60; Plant response rating, Wheat ([13]; 125 g ai/ha): 0; Plant response rating, Wheat ([13]; 500 g ai/ha): 0; Plant response rating, Corn (corn (Zea mays); 125 g ai/ha): 0; Plant response rating, Corn (corn (Zea mays); 500 g ai/ha): 0; Plant response rating, Blackgrass ([14]; 125 g ai/ha): 0; Plant response rating, Blackgrass ([14]; 500 g ai/ha): 0; Plant response rating, Galium ([15]; 125 g ai/ha): 20; Plant response rating, Galium ([15]; 500 g ai/ha): 40; Plant response rating, Rice (0 to 100 scale, 0 is no effect, 100 is complete control) (rice (Oryza sativa)): 0; Plant response rating, Sedge, Umbrella (0 to 100 scale, 0 is no effect, 100 is complete control) [16]: 0; Plant response rating, Ducksalad (0 to 100 scale, 0 is no effect, 100 is complete control) [17]: 0; Plant response rating, Barnyardgrass (0 to 100 scale, 0 is no effect, 100 is complete control) [18]: 0
3 | C[C@H](Nc1nc(N)c(C(F)(F)F)c(C(F)(F)F)n1)C1Cc2ccccc2C1 [Compound 68] | 0 | 0 | 0 | 0 | 0 | 0 | 0 | 0 | 0 | 0 | 0 | 0 | 0 | 0 | 20 | 40 | 40 | 50 | 0 | 0 | Plant response rating, Foxtail, Giant ([11]; 125 g ai/ha): 0; Plant response rating, Foxtail, Giant ([11]; 500 g ai/ha): 0; Plant response rating, Pigweed ([12]; 125 g ai/ha): 0; Plant response rating, Pigweed ([12]; 500 g ai/ha): 0; Plant response rating, Wheat ([13]; 125 g ai/ha): 0; Plant response rating, Wheat ([13]; 500 g ai/ha): 0; Plant response rating, Corn (corn (Zea mays); 125 g ai/ha): 20; Plant response rating, Corn (corn (Zea mays); 500 g ai/ha): 0; Plant response rating, Blackgrass ([14]; 125 g ai/ha): 0; Plant response rating, Blackgrass ([14]; 500 g ai/ha): 0; Plant response rating, Galium ([15]; 125 g ai/ha): 0; Plant response rating, Galium ([15]; 500 g ai/ha): 0; Plant response rating, Rice (0 to 100 scale, 0 is no effect, 100 is complete control) (rice (Oryza sativa)): 0; Plant response rating, Sedge, Umbrella (0 to 100 scale, 0 is no effect, 100 is complete control) [16]: 0; Plant response rating, Ducksalad (0 to 100 scale, 0 is no effect, 100 is complete control) [17]: 0; Plant response rating, Barnyardgrass (0 to 100 scale, 0 is no effect, 100 is complete control) [18]: 0
4 | C[C@H](Nc1ncc(C(F)(F)F)c(N)n1)c1cc2cccc(F)c2o1 [Compound 72] | 0 | 0 | 0 | 0 | 0 | 0 | 0 | 0 | 0 | 0 | 0 | 80 | 0 | 0 | 0 | 30 | 0 | 30 | 0 | 0 | Plant response rating, Foxtail, Giant ([11]; 125 g ai/ha): 0; Plant response rating, Foxtail, Giant ([11]; 500 g ai/ha): 0; Plant response rating, Pigweed ([12]; 125 g ai/ha): 40; Plant response rating, Pigweed ([12]; 500 g ai/ha): 50; Plant response rating, Wheat ([13]; 125 g ai/ha): 0; Plant response rating, Wheat ([13]; 500 g ai/ha): 0; Plant response rating, Corn (corn (Zea mays); 125 g ai/ha): 0; Plant response rating, Corn (corn (Zea mays); 500 g ai/ha): 0; Plant response rating, Blackgrass ([14]; 125 g ai/ha): 0; Plant response rating, Blackgrass ([14]; 500 g ai/ha): 0; Plant response rating, Galium ([15]; 125 g ai/ha): 0; Plant response rating, Galium ([15]; 500 g ai/ha): 40; Plant response rating, Rice (0 to 100 scale, 0 is no effect, 100 is complete control) (rice (Oryza sativa)): 0; Plant response rating, Sedge, Umbrella (0 to 100 scale, 0 is no effect, 100 is complete control) [16]: 0; Plant response rating, Ducksalad (0 to 100 scale, 0 is no effect, 100 is complete control) [17]: 0; Plant response rating, Barnyardgrass (0 to 100 scale, 0 is no effect, 100 is complete control) [18]: 0
5 | C[C@H](Nc1ncc(C(F)(F)F)c(N)n1)c1cc2c(F)cccc2o1 [Compound 74] | 0 | 0 | 0 | 0 | 0 | 40 | 0 | 0 | 0 | 0 | 0 | 10 | 0 | 0 | 20 | 60 | 20 | 30 | 0 | 0 | Plant response rating, Foxtail, Giant ([11]; 125 g ai/ha): 0; Plant response rating, Foxtail, Giant ([11]; 500 g ai/ha): 0; Plant response rating, Pigweed ([12]; 125 g ai/ha): 60; Plant response rating, Pigweed ([12]; 500 g ai/ha): 90; Plant response rating, Wheat ([13]; 125 g ai/ha): 0; Plant response rating, Wheat ([13]; 500 g ai/ha): 0; Plant response rating, Corn (corn (Zea mays); 125 g ai/ha): 0; Plant response rating, Corn (corn (Zea mays); 500 g ai/ha): 0; Plant response rating, Blackgrass ([14]; 125 g ai/ha): 0; Plant response rating, Blackgrass ([14]; 500 g ai/ha): 0; Plant response rating, Galium ([15]; 125 g ai/ha): 0; Plant response rating, Galium ([15]; 500 g ai/ha): 50; Plant response rating, Rice (0 to 100 scale, 0 is no effect, 100 is complete control) (rice (Oryza sativa)): 0; Plant response rating, Sedge, Umbrella (0 to 100 scale, 0 is no effect, 100 is complete control) [16]: 0; Plant response rating, Ducksalad (0 to 100 scale, 0 is no effect, 100 is complete control) [17]: 0; Plant response rating, Barnyardgrass (0 to 100 scale, 0 is no effect, 100 is complete control) [18]: 0
